Measured values published in the CheMixHub viscosity set.
Values joined by “and” are separate entries in the source; they are usually repeats but may differ in a detail not shown here. Equal values may be shown once.

Columns and labels:
[1] = xn = mol fraction of the nth substance listed

CN(C)N
Conditions | viscosity [mPa·s]
293.15 K, 101.3 kPa | 0.55

C[N+](C)(CCCS(=O)(=O)O)C1CCCCC1.Cc1ccc(S(=O)(=O)[O-])cc1
101 kPa
Conditions | viscosity [mPa·s]
303.15 K | 113700
308.15 K | 56930
313.15 K | 32650
318.15 K | 17830
323.15 K | 10190

CC[n+]1ccn(C)c1.O=C([O-])C(F)(F)F
101 kPa
Conditions | viscosity [mPa·s]
293.15 K | 39.5
298.15 K | 32.9
303.15 K | 27.5
313.15 K | 19.9

COCCOC
Conditions | viscosity
298 K, 101.3 kPa | 0.432 mPa·s
298.15 K, 101 kPa | 0.45 mPa·s
298.15 K, 101.33 kPa | 0.4236 mPa·s
301.15 K, 100 kPa | 0.6 mPa·s and 0.7 mPa·s
308.15 K, 101 kPa | 0.445 mPa·s and 0.3812 mPa·s
308.15 K, 101.33 kPa | 0.3847 mPa·s
313.15 K, 101 kPa | 0.3628 mPa·s
318.15 K, 101 kPa | 0.3444 mPa·s
318.15 K, 101.33 kPa | 0.3496 mPa·s
323.15 K, 101 kPa | 0.3284 mPa·s

COc1ccccc1N
viscosity
Conditions | 298.15 K | 303.15 K | 308.15 K | 313.15 K | 318.15 K
100 kPa | 5.374 mPa·s | – | – | – | –
101 kPa | – | 4.924 mPa·s and 4.922 mPa·s and 4.922 mPa·s | 4.512 mPa·s and 4.512 mPa·s | 4.185 mPa·s and 4.185 mPa·s | 3.883 mPa·s and 3.883 mPa·s

OCCNCCO
viscosity
Conditions | 293.15 K | 298.15 K | 303.15 K | 308.15 K | 313.15 K | 318.15 K | 323.15 K
101 kPa | 841.5 mPa·s and 742 mPa·s | – | 365.7 mPa·s and 379.3 mPa·s | 263.1 mPa·s | 179.8 mPa·s and 186.4 mPa·s | 134.5 mPa·s | 89.7 mPa·s and 111 mPa·s and 98.85 mPa·s
101.33 kPa | – | 566.3 mPa·s | – | – | – | – | –

OCCCOCCCO
101 kPa
Conditions | viscosity [mPa·s]
293.15 K | 115
298.15 K | 78.2
303.15 K | 51.1
308.15 K | 37.2
313.15 K | 27.4
318.15 K | 20.8

COC(C)=O
Conditions | viscosity
293.15 K, 101 kPa | 0.411 mPa·s
303.15 K, 101.3 kPa | 0.3448 mPa·s and 0.3442 mPa·s and 0.3448 mPa·s
313.15 K, 101 kPa | 0.321 mPa·s and 0.3524 mPa·s and 0.331 mPa·s
313.15 K, 101.33 kPa | 0.331 mPa·s
318.15 K, 101 kPa | 0.299 mPa·s and 0.313 mPa·s

CCOC(=O)C(C)Br (configuration not stated)
Conditions | viscosity [mPa·s]
303.15 K, 101 kPa | 1.493

c1ccc2ncccc2c1
Conditions | viscosity
293.15 K, 101 kPa | 3.64 mPa·s
293.25 K, 101 kPa | 3.635 mPa·s
298 K, 101.3 kPa | 3.475 mPa·s
298.15 K, 101.33 kPa | 3.36 mPa·s
303 K, 101.3 kPa | 3.092 mPa·s
303.05 K, 101 kPa | 2.943 mPa·s
303.15 K, 101 kPa | 2.94 mPa·s and 3.1 mPa·s
303.15 K, 101.33 kPa | 3.01 mPa·s
308 K, 101.3 kPa | 2.777 mPa·s
308.15 K, 101.33 kPa | 2.68 mPa·s
313 K, 101.3 kPa | 2.489 mPa·s
313.15 K, 101 kPa | 2.385 mPa·s and 2.384 mPa·s
313.15 K, 101.33 kPa | 2.43 mPa·s
318 K, 101.3 kPa | 2.243 mPa·s and 2.242 mPa·s
318.15 K, 101.33 kPa | 2.21 mPa·s
323.15 K, 101.33 kPa | 2.03 mPa·s

CCCC[N+]1(C)CCCC1.FC(F)(F)C(F)(F)[P-](F)(F)(F)(C(F)(F)C(F)(F)F)C(F)(F)C(F)(F)F
101 kPa
Conditions | viscosity [mPa·s]
298.15 K | 283.4
303.15 K | 214
308.15 K | 166.2
313.15 K | 122.1
318.15 K | 100.3
323.15 K | 80.1

CC(CC(C)(C)C)CP(=O)([O-])CC(C)CC(C)(C)C.CCCC[P+](C)(CCCC)CCCC (configuration not stated)
Conditions | viscosity [mPa·s]
323.15 K, 101 kPa | 283

CCCCCCCC(=O)OCC
100 kPa
Conditions | viscosity [mPa·s]
293.15 K | 1.549
303.15 K | 1.295
313.15 K | 1.095
323.15 K | 0.949

CCC(C)=O
Conditions | viscosity
293.15 K, 100 kPa | 0.4 mPa·s and 0.4152 mPa·s
298 K, 101.3 kPa | 0.475 mPa·s
298 K, 101.33 kPa | 0.3774 mPa·s
298.15 K, 100 kPa | 0.3992 mPa·s
298.15 K, 101.3 kPa | 0.407 mPa·s
298.15 K, 101.33 kPa | 0.384 mPa·s and 0.46 mPa·s and 0.39 mPa·s
299.15 K, 101.3 kPa | 0.401 mPa·s
303.15 K, 101.3 kPa | 0.364 mPa·s
303.15 K, 101.33 kPa | 0.366 mPa·s
307.35 K, 101.33 kPa | 0.35 mPa·s
308.15 K, 100 kPa | 0.344 mPa·s and 0.3666 mPa·s
308.15 K, 101.33 kPa | 0.342 mPa·s and 0.422 mPa·s
313.15 K, 101.3 kPa | 0.356 mPa·s
318 K, 101.3 kPa | 0.3429 mPa·s
318 K, 101.33 kPa | 0.3417 mPa·s
318.15 K, 101 kPa | 0.3194 mPa·s and 0.3213 mPa·s and 0.322 mPa·s
318.15 K, 101.3 kPa | 0.343 mPa·s
318.15 K, 101.33 kPa | 0.311 mPa·s and 0.397 mPa·s
323.15 K, 100 kPa | 0.31 mPa·s and 0.304 mPa·s
323.15 K, 101.3 kPa | 0.3327 mPa·s

Cc1ccc(C)c(C)c1
102 kPa
Conditions | viscosity [mPa·s]
293.15 K | 0.84
303.15 K | 0.731
313.15 K | 0.64
323.15 K | 0.567

C1CCCCC1
Conditions | viscosity
293.15 K, 101 kPa | 0.972 mPa·s
293.15 K, 101.3 kPa | 0.986 mPa·s
298 K, 101 kPa | 0.99 mPa·s
298 K, 101.3 kPa | 0.883 mPa·s
298.15 K, 100 kPa | 0.8956 mPa·s and 0.8961 mPa·s
298.15 K, 101.3 kPa | 0.905 mPa·s and 0.8862 mPa·s
303 K, 101.33 kPa | 0.8141 mPa·s
303.15 K, 100 kPa | 0.82 mPa·s
303.15 K, 101.32 kPa | 0.826 mPa·s
303.75 K, 101.33 kPa | 0.8403 mPa·s
307.35 K, 101.33 kPa | 0.76 mPa·s
307.4 K, 101.33 kPa | 0.309 mPa·s
308 K, 101 kPa | 0.86 mPa·s
308.15 K, 100 kPa | 0.7316 mPa·s
308.15 K, 101.3 kPa | 0.7483 mPa·s and 0.7592 mPa·s
312.75 K, 101.33 kPa | 0.7277 mPa·s
313 K, 101.33 kPa | 0.7045 mPa·s
313.15 K, 100 kPa | 0.7 mPa·s
313.15 K, 101 kPa | 0.687 mPa·s and 0.6934 mPa·s
313.15 K, 101.3 kPa | 0.7003 mPa·s and 0.6886 mPa·s
313.15 K, 101.33 kPa | 0.682 mPa·s and 0.6995 mPa·s
318 K, 101.3 kPa | 0.6338 mPa·s and 0.6445 mPa·s
318 K, 101.33 kPa | 0.6338 mPa·s
318.15 K, 101 kPa | 0.649 mPa·s and 0.648 mPa·s and 0.655 mPa·s
321.15 K, 101.32 kPa | 0.5964 mPa·s
322.15 K, 101.32 kPa | 0.5901 mPa·s
323 K, 101 kPa | 0.6023 mPa·s and 0.6009 mPa·s
323 K, 101.33 kPa | 0.6126 mPa·s
323.15 K, 100 kPa | 0.6074 mPa·s and 0.6 mPa·s and 0.6077 mPa·s
323.15 K, 101 kPa | 0.607 mPa·s
323.15 K, 101.32 kPa | 0.5842 mPa·s

CC(=O)OC(C)C(C)C (configuration not stated)
101.33 kPa
Conditions | viscosity [mPa·s]
298.15 K | 0.795
303.15 K | 0.74
308.15 K | 0.69

CCCCCCOC(C)=O
101.33 kPa
Conditions | viscosity [mPa·s]
293.15 K | 1.078
303.15 K | 0.782
313.15 K | 0.672

CCCCOCC(C)O (configuration not stated)
101.33 kPa
Conditions | viscosity [mPa·s]
298.15 K | 2.855
308.15 K | 2.142
318.15 K | 1.655

COc1ccccc1N + CCCCOCCO
[1], 303.15 K, 101 kPa
Conditions | viscosity [mPa·s]
x1 = 0.115 | 3.21
x1 = 0.2262 | 3.538
x1 = 0.3338 | 3.847
x1 = 0.438 | 4.116
x1 = 0.539 | 4.334
x1 = 0.6369 | 4.494
x1 = 0.7318 | 4.629
x1 = 0.8238 | 4.741
x1 = 0.9132 | 4.839

COc1ccccc1N + NCCO
viscosity [mPa·s], [1], 100 kPa
Conditions | x1 = 0.0897 | x1 = 0.1649 | x1 = 0.2579 | x1 = 0.3519 | x1 = 0.4497 | x1 = 0.5507 | x1 = 0.6549 | x1 = 0.7626 | x1 = 0.8735
303.15 K | 13.58 | 12.87 | 11.99 | 11.1 | 10.18 | 9.22 | 8.23 | 7.2 | 6.14
308.15 K | 11.07 | 10.54 | 9.87 | 9.2 | 8.5 | 7.77 | 7.02 | 6.24 | 5.44
313.15 K | 9.09 | 8.7 | 8.2 | 7.7 | 7.17 | 6.63 | 6.07 | 5.49 | 4.88
318.15 K | 7.24 | 6.97 | 6.64 | 6.29 | 5.94 | 5.56 | 5.18 | 4.78 | 4.37

OCC1CCCCC1
Conditions | viscosity [mPa·s]
293.15 K, 100 kPa | 37.75

COC(C)=O + CCC(C)O
[1], 298.15 K, 101.33 kPa
Conditions | viscosity [mPa·s]
x1 = 0.1056 | 1.854
x1 = 0.2017 | 1.275
x1 = 0.3076 | 0.921
x1 = 0.3884 | 0.771
x1 = 0.4935 | 0.64
x1 = 0.5697 | 0.559
x1 = 0.6653 | 0.485
x1 = 0.7801 | 0.429
x1 = 0.876 | 0.411

O=C(O)c1ccccc1 + CCCO
viscosity, [1]
Conditions | 298.15 K | 303.15 K | 308.15 K | 313.15 K | 318.15 K
101 kPa, x1 = 0.164 | – | 2.531 mPa·s | – | – | 1.77 mPa·s
101 kPa, x1 = 0.1645 | 2.892 mPa·s | 2.531 mPa·s | 2.243 mPa·s | 1.988 mPa·s | 1.77 mPa·s
101 kPa, x1 = 0.178 | – | 2.603 mPa·s | – | – | 1.816 mPa·s
101 kPa, x1 = 0.197 | – | 2.724 mPa·s | – | – | 1.881 mPa·s
101 kPa, x1 = 0.216 | – | 2.844 mPa·s and 2.844 mPa·s | 2.498 mPa·s | 2.206 mPa·s | 1.965 mPa·s and 1.965 mPa·s
101.33 kPa, x1 = 0.1645 | – | 2.531 mPa·s | – | – | 1.77 mPa·s
101.33 kPa, x1 = 0.178 | – | 2.603 mPa·s | – | – | 1.816 mPa·s
101.33 kPa, x1 = 0.1975 | – | 2.734 mPa·s | – | – | 1.881 mPa·s
101.33 kPa, x1 = 0.2 | 2.892 mPa·s | 2.531 mPa·s and 2.531 mPa·s | 2.243 mPa·s and 2.243 mPa·s | 1.988 mPa·s and 1.988 mPa·s | 1.77 mPa·s and 1.77 mPa·s
101.33 kPa, x1 = 0.216 | – | 2.844 mPa·s | – | – | 1.965 mPa·s
101.33 kPa, x1 = 0.22 | – | 2.844 mPa·s and 2.844 mPa·s | 2.498 mPa·s and 2.498 mPa·s | 2.206 mPa·s and 2.206 mPa·s | 1.965 mPa·s and 1.965 mPa·s
